Source: patent publication US12213993B2, “Coated medicinal clay compositions, pharmaceutical compositions, and delivery of cation sources and methods of use thereof” (priority 2021, dated 2025)

Assay: Calculation of chloride binding by cations of clay/silver wound dressing in wound exudate
Format: physicochemical
Details: without the chelation of chloride provided by the medicinal clay
Source text: Medicinal clay in a pharmaceutical composition was applied to an exemplary wound dressing, which incorporated an additional therapeutic cation, silver. Wound exudate is known to contain anions, which can interfere with the medicinal qualities of the medicinal clay and additional therapeutic agents when the medicinal clay comes into contact with the moisture of the wound exudate (a water source). Wound exudate is variable patient to patient, so an average amount of 101 mEq/L chloride anions was used. The medicinal clay of Example 1 was analyzed for cations, which may interact with the chloride in wound exudate. Table 5 describes an approximate amount of ions present the exemplary clay composition of the wound dressing (4×4 inch pad), silver added into the wound dressing for delivery with the clay, and wound exudate, as well as the amount of each in the exemplary wound dressing and wound exudate (grams). […] A skilled artisan will appreciate from the disclosure of the calculations that such a minimum effective amount can vary based on an exudate sample. Accordingly, the calculated atoms and weight (g) in Table 5 can have a variation of about ±30%, ±25%, ±20%, ±15%, or ±10%. The exemplary wound dressings comprise from about 0.1 to about 2.5 grams of the clay composition, preferably from about 0.2 to about 0.8 grams of the clay composition. […]

**Q.** Which “silver in the dressing that chloride could bind prior to release” value does the source give for `[Ag+]` [silver] here?
**A.** The value was 72%.

Assay: not given
Details: ion pair with chloride; cited from earlier work

**Q.** With `[Cl][Fe][Cl]` [FeCl2] as the compound, how does the “Lattice Energy” value read?
**A.** Its value is 614 kcal/mol.

**Q.** For `[Cl-].[K+]` [KCl], which “Lattice Energy” value is on record?
**A.** Its value is 168 kcal/mol.

**Q.** With `[Cl][Al]([Cl])[Cl]` [AlCl3] as the compound, how does the “Lattice Energy” value read?
**A.** The value was 1228 kcal/mol.

**Q.** Which “Lattice Energy” value does the source give for `[Cl][Fe]([Cl])[Cl]` [FeCl3] here?
**A.** The value was 1282 kcal/mol.

**Q.** For `[Cl][Mn][Cl]` [MnCl2], which “Lattice Energy” value is on record?
**A.** The value was 599.9 kcal/mol.

**Q.** With `[Ca+2].[Cl-].[Cl-]` [CaCl2] as the compound, how does the “Lattice Energy” value read?
**A.** Its value is 542.1 kcal/mol.

**Q.** For `[Cl][Ag]` [AgCl], which “Lattice Energy” value is on record?
**A.** The value was 187 kcal/mol.

**Q.** Which “Lattice Energy” value does the source give for `[Cl-].[Cl-].[Mg+2]` [MgCl2] here?
**A.** Its value is 592 kcal/mol.

**Q.** With `[Cl-].[Na+]` [NaCl] as the compound, how does the “Lattice Energy” value read?
**A.** Its value is 184 kcal/mol.
